Reference: ChEMBL document CHEMBL1143191, “The synthesis and biological evaluation of a range of novel functionalized benzopyrans as potential potassium channel activators” (2008)

What was measured:
Type in all cases: functional, Thorax
Thoracic [1] = assay: Vasorelaxation activity against phenylephrine-stimulated contraction in rat thoracic tissue at 10 uM; parameters: scale not given: the % may be the effect or the level left
Thoracic [2] = assay: Vasorelaxation activity against phenylephrine-stimulated contraction in rat thoracic tissue at 40 uM; parameters: scale not given: the % may be the effect or the level left
Thoracic [3] = assay: Vasorelaxation activity against phenylephrine-stimulated contraction in rat thoracic tissue assessed as time taken for relaxation at 10 uM
Thoracic [4] = assay: Vasorelaxation activity against phenylephrine-stimulated contraction in rat thoracic tissue assessed as time taken for relaxation at 40 uM
Thoracic [5] = assay: Vasorelaxation activity against phenylephrine-stimulated contraction in rat thoracic tissue at 20 uM in presence of glibenclamide; parameters: scale not given: the % may be the effect or the level left
Thoracic [6] = assay: Vasorelaxation activity against phenylephrine-stimulated contraction in rat thoracic tissue at 1 uM; parameters: scale not given: the % may be the effect or the level left

SMILES	Activity (Thoracic [1])	Activity (Thoracic [2])	Time (Thoracic [3])	Time (Thoracic [4])	Activity (Thoracic [5])	Activity (Thoracic [6])
CC(C)(F)[C@@H]1COc2c(F)cccc2C1C#Cc1ccccc1 (single isomer, unassigned)	28%	92%	43 min	21 min	30%	
CC(C)(F)[C@@H]1COc2ccc(F)cc2C1C#Cc1ccccc1 (single isomer, unassigned)	36%	83%	55 min	33 min	44%	
CC(C)(F)[C@@H]1COc2ccc([N+](=O)[O-])cc2C1C#Cc1ccccc1 (single isomer, unassigned)	43%	88%	40 min	30 min	30%	
CC(C)(F)[C@@H]1COc2c(F)cc(F)cc2C1C#Cc1ccccc1 (single isomer, unassigned)	20%	65%	41 min	24 min		
CC1(C)Oc2ccc(C#N)cc2[C@@H](N2CCCC2=O)[C@@H]1O [CROMAKALIM]	72%					56%
